Square brackets hold non-standard residues; d marks the D form. Peptide text beside a SMILES is read from it. NMeY = CN[C@@H](Cc1ccc(O)cc1)C(=O)O; hLeu = CC(C)CC[C@H](N)C(=O)O; NMeA = CN[C@@H](C)C(=O)O; Nle = CCCC[C@H](N)C(=O)O; Orn = NCCC[C@H](N)C(=O)O
Target: T1, PD-1/PD-L1 (Homo sapiens, UniProt Q15116)
T1 construct: this kit uses ectodomains of PD-1 and PD-L1 that are expressed with orthogonal fusion tags (Tag-1 and Tag-2); purchased CisBio (currently Perkin-Elmer, Bedford, MA)
Assay: In vitro time-resolved FRET PD-1/PD-L1 binding assay (CisBio kit)
Conditions: CisBio PD-1/PD-L1 binding kit, TR FRET, 96-well; for EC50: serial dilutions in triplicate, NI = no inhibition at maximum concentration tested (* 5 μM, ** 50 μM), read-out: EC50 (Supplementary Table S1; inhibition of PD-1/PD-L1 binding by in vitro TR-FRET assay)
Protocol: Commercial PD-1/PD-L1 binding assay kit (CisBio, currently Perkin-Elmer, Bedford, MA) for time resolve fluorescent energy transfer (FRET) was used to assess peptides binding to PD-1. The assay for peptide screening was performed in a 96-well format (normal pressure), starting with 4-fold serial dilutions of each peptide in triplicate. No-peptide triplicate wells were used to assess fluorescent energy transfer in the absence of inhibition, and no-PD-1/PD-L1 triplicate wells were used to assess the background fluorescent energy transfer in the absence of PD-1/PD-L1 complexes. More detailed concentration dependences were obtained for selected peptides. Only freshly dissolved peptides were used in the assay. Various QSAR (quantitative structure activity relationship) hypotheses were tested by synthesizing batches of 10–12 peptides. In total, over one hundred candidates in ten iterations were screened for their ability to inhibit in vitro PD-1/PD-L1 binding using the commercial PD-1/PD-L1 binding assay kit (CisBio, currently Perkin-Elmer). Briefly, this kit uses ectodomains of PD-1 and PD-L1 that are expressed with orthogonal fusion tags (Tag-1 and Tag-2). It also includes two antibodies to selectively interact with these tags. The antibody against one tag is labeled with fluorescent moiety, which serves as a donor, while the other antibody is labeled with fluorescent moiety, which serves as an acceptor in fluorescent resonance energy transfer (FRET). When the complex is formed and probed with both anti-Tag-1 and anti-Tag-2 antibodies, donor and acceptor are sufficiently close, and FRET can be detected in a time-resolved (TR) manner. Inhibitors of PD-1/PD-L1 interactions prevent complex formation, leading to a decrease in TR FRET in a concentration-dependent manner, as shown in Figure 2 for four representative peptide inhibitors. Initial fourfold dilutions are exemplified by data for peptides B5.11 and B5.6 (panels A and B); examples of the more detailed follow-up concentration dependences are shown for peptides B2.4 and B2.22 (panels C and D). The potency of the inhibitors is then characterized by IC50, a concentration that inhibits TR FRET by 50%, allowing for a facile comparison of different inhibitors (Figure 2E).

Row | Compound | IC50 (4-fold serial dilutions in triplicate, freshly dissolved peptides, read-out: IC50, inhibition of PD-1/PD-L1 binding (TR FRET assay)) | EC50
1 | CC[C@H](C)[C@H](NC(=O)[C@@H](NC(=O)[C@H](CC(C)C)NC(C)=O)C(C)C)C(=O)N[C@H](C(=O)NCC(=O)N(C)[C@@H](C)C(=O)N[C@@H](C)C(=O)N[C@@H](Cc1c[nH]c2ccccc12)C(=O)N[C@@H](CC(=O)O)C(=O)N[C@@H](Cc1ccc(O)cc1)C(=O)N[C@@H](CCCCN)C(=O)N(C)[C@@H](Cc1ccc(O)cc1)C(N)=O)C(C)C [B3.10] (Ac-LVIVG[NMeA]AWDYK[NMeY]-NH2) |  | > 50 µM
2 | CC[C@H](C)[C@H](NC(=O)[C@@H](NC(=O)[C@H](CC(C)C)NC(C)=O)C(C)C)C(=O)N[C@H](C(=O)NCC(=O)N[C@@H](C)C(=O)N[C@@H](CCCN)C(=O)N[C@@H](Cc1c[nH]c2ccccc12)C(=O)N[C@@H](CC(=O)O)C(=O)N[C@@H](Cc1ccc(O)cc1)C(=O)N[C@@H](CCCCN)C(=O)N[C@@H](Cc1ccc(O)cc1)C(N)=O)C(C)C [B3.22] (Ac-LVIVGA[Orn]WDYKY-NH2) |  | > 5 µM
3 | CC(=O)N[C@@H](CCC(C)C)C(=O)N[C@H](C(=O)N[C@@H](Cc1c[nH]c2ccccc12)C(=O)N[C@H](C(=O)NCC(=O)N[C@@H](C)C(=O)N[C@@H](CCCN)C(=O)N[C@@H](Cc1c[nH]c2ccccc12)C(=O)N[C@@H](CC(=O)O)C(=O)N[C@@H](CCCNC(=N)N)C(=O)N[C@@H](CCCCN)C(=O)N[C@@H](Cc1ccc(O)cc1)C(N)=O)C(C)C)C(C)C [B3.23] (Ac-[hLeu]VWVGA[Orn]WDRKY-NH2) |  | > 5 µM
4 | CCCC[C@H](NC(C)=O)C(=O)N[C@H](C(=O)N[C@H](C(=O)N[C@H](C(=O)NCC(=O)N[C@@H](C)C(=O)N[C@@H](C)C(=O)N[C@@H](Cc1c[nH]c2ccccc12)C(=O)N[C@@H](CC(=O)O)C(=O)N[C@@H](Cc1ccc(O)cc1)C(=O)N[C@@H](CCCCN)C(=O)N[C@@H](Cc1ccc(O)cc1)C(N)=O)C(C)C)[C@@H](C)CC)C(C)C [B4.1] (Ac-[Nle]VIVGAAWDYKY-NH2) |  | > 5 µM
5 | CCCC[C@H](N)C(=O)N[C@H](C(=O)N[C@H](C(=O)N[C@H](C(=O)NCC(=O)N[C@@H](C)C(=O)N[C@@H](C)C(=O)N[C@@H](Cc1c[nH]c2ccccc12)C(=O)N[C@@H](CC(=O)O)C(=O)N[C@@H](Cc1ccc(O)cc1)C(=O)N[C@@H](CCCCN)C(=O)N[C@@H](Cc1ccc(O)cc1)C(=O)O)C(C)C)[C@@H](C)CC)C(C)C [B4.2] (H-[Nle]VIVGAAWDYKY-OH; N-terminus and C-terminus assumed) |  | > 5 µM
6 | CCCC[C@H](NC(C)=O)C(=O)N[C@H](C(=O)N[C@H](C(=O)N[C@H](C(=O)NCC(=O)N[C@@H](C)C(=O)N[C@@H](C)C(=O)N[C@@H](Cc1c[nH]c2ccccc12)C(=O)N[C@@H](CC(=O)O)C(=O)N[C@@H](CCCNC(=N)N)C(=O)N[C@@H](CCCCN)C(=O)N[C@@H](Cc1ccc(O)cc1)C(N)=O)C(C)C)[C@@H](C)CC)C(C)C [B4.3] (Ac-[Nle]VIVGAAWDRKY-NH2) |  | > 5 µM
7 | CCCC[C@H](NC(=O)[C@@H](NC(=O)[C@@H](N)CCCNC(=N)N)C(C)C)C(=O)N[C@H](C(=O)N[C@@H](Cc1c[nH]c2ccccc12)C(=O)N[C@H](C(=O)NCC(=O)N[C@@H](C)C(=O)N[C@@H](C)C(=O)N[C@@H](Cc1c[nH]c2ccccc12)C(=O)N[C@@H](CC(=O)O)C(=O)N[C@@H](Cc1ccc(O)cc1)C(=O)N[C@@H](CCCCN)C(=O)N[C@@H](Cc1ccc(O)cc1)C(=O)O)C(C)C)C(C)C [B4.4] (H-RV[Nle]VWVGAAWDYKY-OH; N-terminus and C-terminus assumed) |  | > 5 µM
8 | CCCC[C@H](NC(=O)[C@@H](NC(=O)[C@@H](N)CCCNC(=N)N)C(C)C)C(=O)N[C@H](C(=O)N[C@H](C(=O)N[C@H](C(=O)NCC(=O)N[C@@H](C)C(=O)N[C@@H](C)C(=O)N[C@@H](Cc1c[nH]c2ccccc12)C(=O)N[C@@H](CC(=O)O)C(=O)N[C@@H](Cc1ccc(O)cc1)C(=O)N[C@@H](CCCCN)C(=O)O)C(C)C)[C@@H](C)CC)C(C)C [B4.5] (H-RV[Nle]VIVGAAWDYK-OH; N-terminus and C-terminus assumed) |  | > 5 µM

Continued, values first:

Row | IC50 (4-fold serial dilutions in triplicate, freshly dissolved peptides, read-out: IC50, inhibition of PD-1/PD-L1 binding (TR FRET assay)) | EC50 | Compound
9 | 0.5 µM | 0.5 µM | CCCC[C@H](NC(=O)[C@@H](NC(=O)[C@H](CCCNC(=N)N)NC(C)=O)C(C)C)C(=O)N[C@H](C(=O)N[C@H](C(=O)N[C@H](C(=O)NCC(=O)N[C@@H](C)C(=O)N[C@@H](C)C(=O)N[C@@H](Cc1c[nH]c2ccccc12)C(=O)N[C@@H](CC(=O)O)C(=O)N[C@@H](Cc1ccc(O)cc1)C(=O)N[C@@H](CCCCN)C(=O)N[C@@H](Cc1ccc(O)cc1)C(N)=O)C(C)C)[C@@H](C)CC)C(C)C [B2.4] (Ac-RV[Nle]VIVGAAWDYKY-NH2)
10 |  | 11 µM | CCCC[C@H](NC(C)=O)C(=O)N[C@H](C(=O)N[C@@H](CC(C)C)C(=O)N[C@H](C(=O)N[C@H](C(=O)N[C@H](C(=O)NCC(=O)N[C@@H](C)C(=O)N[C@@H](C)C(=O)N[C@@H](Cc1c[nH]c2ccccc12)C(=O)N[C@@H](CC(=O)O)C(=O)N[C@@H](Cc1ccc(O)cc1)C(=O)N[C@@H](CCCCN)C(=O)N[C@@H](CCCNC(=N)N)C(N)=O)C(C)C)[C@@H](C)CC)C(C)C)C(C)C [B2.5] (Ac-[Nle]VLVIVGAAWDYKR-NH2)
11 |  | 1 µM | CCCC[C@H](NC(C)=O)C(=O)N[C@H](C(=O)N[C@@H](CC(C)C)C(=O)N[C@H](C(=O)N[C@H](C(=O)N[C@H](C(=O)NCC(=O)N[C@@H](C)C(=O)N[C@@H](C)C(=O)N[C@@H](Cc1c[nH]c2ccccc12)C(=O)N[C@@H](CC(=O)O)C(=O)N[C@@H](CCCNC(=N)N)C(=O)N[C@@H](CCCCN)C(=O)N[C@@H](Cc1ccc(O)cc1)C(N)=O)C(C)C)[C@@H](C)CC)C(C)C)C(C)C [B2.16] (Ac-[Nle]VLVIVGAAWDRKY-NH2)
12 |  | 4 µM | CCCC[C@H](NC(=O)[C@@H](NC(=O)[C@H](CC(C)C)NC(=O)[C@@H](NC(=O)[C@H](CCCNC(=N)N)NC(C)=O)C(C)C)C(C)C)C(=O)N[C@H](C(=O)NCC(=O)N[C@@H](C)C(=O)N[C@@H](C)C(=O)N[C@@H](Cc1c[nH]c2ccccc12)C(=O)N[C@@H](CC(=O)O)C(=O)N[C@@H](Cc1ccc(O)cc1)C(=O)N[C@@H](CCCCN)C(=O)N[C@@H](Cc1ccc(O)cc1)C(N)=O)C(C)C [B2.17] (Ac-RVLV[Nle]VGAAWDYKY-NH2)
13 |  | 1.8 µM | CC(=O)N[C@@H](CCCNC(=N)N)C(=O)N[C@H](C(=O)N[C@@H](CCC(C)C)C(=O)N[C@H](C(=O)N[C@@H](CCC(C)C)C(=O)N[C@H](C(=O)NCC(=O)N[C@@H](C)C(=O)N[C@@H](C)C(=O)N[C@@H](Cc1c[nH]c2ccccc12)C(=O)N[C@@H](CC(=O)O)C(=O)N[C@@H](Cc1ccc(O)cc1)C(=O)N[C@@H](CCCCN)C(=O)N[C@@H](Cc1ccc(O)cc1)C(N)=O)C(C)C)C(C)C)C(C)C [B2.27] (Ac-RV[hLeu]V[hLeu]VGAAWDYKY-NH2)
14 |  | 22 µM | CC[C@H](C)[C@H](NC(=O)[C@@H](NC(=O)[C@H](CC(C)C)NC(=O)[C@@H](NC(=O)[C@H](CCCNC(=N)N)NC(C)=O)C(C)C)C(C)C)C(=O)N[C@H](C(=O)NCC(=O)N[C@@H](C)C(=O)N[C@@H](C)C(=O)N[C@@H](CCC(C)C)C(=O)N[C@@H](CC(=O)O)C(=O)N[C@@H](Cc1ccc(O)cc1)C(=O)N[C@@H](CCCCN)C(=O)N[C@@H](Cc1ccc(O)cc1)C(N)=O)C(C)C [B2.32] (Ac-RVLVIVGAA[hLeu]DYKY-NH2)
15 |  | 35 µM | CC(=O)N[C@@H](CCC(C)C)C(=O)N[C@H](C(=O)N[C@@H](CCC(C)C)C(=O)N[C@H](C(=O)NCC(=O)N[C@@H](C)C(=O)N[C@@H](C)C(=O)N[C@@H](Cc1c[nH]c2ccccc12)C(=O)N[C@@H](CC(=O)O)C(=O)N[C@@H](Cc1ccc(O)cc1)C(=O)N[C@@H](CCCCN)C(=O)N[C@@H](Cc1ccc(O)cc1)C(N)=O)C(C)C)C(C)C [B3.3] (Ac-[hLeu]V[hLeu]VGAAWDYKY-NH2)
16 |  | > 5 µM | CC(=O)N[C@@H](CCC(C)C)C(=O)N[C@H](C(=O)N[C@@H](CCC(C)C)C(=O)N[C@H](C(=O)NCC(=O)N[C@@H](C)C(=O)N[C@@H](C)C(=O)N[C@@H](Cc1c[nH]c2ccccc12)C(=O)N[C@@H](CC(=O)O)C(=O)N[C@@H](CCCNC(=N)N)C(=O)N[C@@H](CCCCN)C(=O)N[C@@H](Cc1ccc(O)cc1)C(N)=O)C(C)C)C(C)C [B3.20] (Ac-[hLeu]V[hLeu]VGAAWDRKY-NH2)
17 |  | > 5 µM | CC(=O)N[C@@H](CCC(C)C)C(=O)N[C@H](C(=O)N[C@@H](Cc1c[nH]c2ccccc12)C(=O)N[C@H](C(=O)NCC(=O)N[C@@H](C)C(=O)N[C@@H](C)C(=O)N[C@@H](Cc1c[nH]c2ccccc12)C(=O)N[C@@H](CC(=O)O)C(=O)N[C@@H](CCCNC(=N)N)C(=O)N[C@@H](CCCCN)C(=O)N[C@@H](Cc1ccc(O)cc1)C(N)=O)C(C)C)C(C)C [B3.21] (Ac-[hLeu]VWVGAAWDRKY-NH2)

Reference: PMC11118832 (Biomolecules, 2024)
